Test results from patent US20250243560A1, “METAL EXTRACTANT AND SEPARATION RECOVERY METHOD OF METAL IONS USING METAL EXTRACTANT” (FUJIFILM Corporation, priority 2022, published 2025).
Like-named read-outs stand apart in the source and are kept apart here.

How the values were obtained:
[1] = Separation recovery method I, water phase W2 (Mn, Co, Ni sulfates) mixed with kerosine oil phase of the metal extractant; settings: for Selection Ratio: W2, maximum amount of metal ions extracted / total amount of the other metal ions extracted, mixing amount 0.4 equivalent
Method: (§1) In addition, each of sulfates of a combination of metal ions shown in Table 1-1 was dissolved in ultrapure water to prepare each of metal ion-containing aqueous solutions (W2) and (W3) including two or three kinds of metal ions.
(§2) 12 mL of the extractant (Y1) with respect to 10 mL of the prepared metal ion-containing aqueous solution (W1) was added to a 30 mL vial tube, and the mixture was stirred using a stirrer tip at 25° C. for 30 minutes. In this case, the mixing amount (unit: equivalent) of the metal extractant with respect to the total content of metal ions to be coordinated (that have the same definition as the extracted metal ions; in Example 1, Co and Ni) was 0.5. Next, a 10 M sodium hydroxide aqueous solution or a 10 M hydrochloric acid was added to adjust the pH of the mixed solution to a value shown in the column “pH during Mixing” of Table 1-2. Further, the solution was stirred at 25° C. for 30 minutes, and was left to stand at the same temperature for 1 hour. After verifying that the solution was separated into two layers of the organic phase (oil phase) and the water phase, the separated water phase was extracted, and the separation and recovery of the metal ions was performed. The metal ions extracted in Example 1 and the metal ions extracted in the maximum amount are shown in the column “Kind” and the column “Maximum Amount Extracted” of the column “Extracted Metal Ions” in Table 1-2, respectively.
(§3) Separation and recovery of metal ions according to Examples 2 to 4 and 8 and Comparative Examples 1 to 6 and 9 were performed using the same method as that of Example 1, except that the metal ion-containing aqueous solution and the metal extractant solution were changed to a combination shown in Table 1-1 and Table 1-2 (hereinafter, both of which are referred to as Table 1″), the pH during the mixing of the water phase and the oil phase was set to a value shown in the column “pH during Mixing” of Table 1-2, and the mixing amount (unit: equivalent) of the metal extractant with respect to the total content of metal ions to be coordinated was set to a value shown in the column “Mixing Amount” of Table 1-2 for mixing and standing. The metal ions extracted in each of Examples and the metal ions extracted in the maximum amount are shown in the column “Kind” and the column “Maximum Amount Extracted” of the column “Extracted Metal Ions” in Table 1-2, respectively.
(§4) Regarding each of the water phases used in Examples and Comparative Examples and the water phases after the extraction, the pH was measured using a pH meter (SK-620 pH II, manufactured by SATOTECH), and each of the contents of dissolved metal ions was determined using an inductively coupled plasma-optical emission spectrometer (ICP-OES) (Optima 7300 D (trade name), manufactured by Perkin Elmer Co., Ltd.). Measured values of the pH of each of the water phases used in Examples and Comparative Examples and the content of dissolved metal ions in each of the water phases are shown in the column “Water Phase pH” of Table 1-2 and the column “Metal Ion Concentration (ppm)” of Table 1-1. The maximum amount (ppm) of the metal ions extracted measured as described above was divided by the total amount (ppm) of the other metal ions extracted to calculate a ratio between the amounts thereof extracted. The result is shown in the column “Selection Ratio” of Table 1-2.

[2] = room temperature, concentration 310 mM
Method: Each of the synthesized or prepared metal extractants was added to a 100 mL measuring flask, and was diluted using kerosine (manufactured by FUJIFILM Wako Pure Chemicals Corporation) at room temperature. As a result, metal extractant solutions (Y1) to (Y6) and (Ycl) to (Yc9) (concentration: 310 mM) including the metal extractants were prepared, respectively.

[3] = Acid dissociation constant pKa by neutralization titration; type: physicochemical; settings: for metal extractant II pKa of a conjugate acid
Excerpt: An acid dissociation constant pKa of the metal extractant is not particularly limited, and an appropriate value for the kind, the number, and the like of the coordinating functional groups can be adopted. In the present invention, the pKa is a value measured by neutralization titration.
In the present invention, the pKa is a value measured by neutralization titration.
Regarding the synthesized or prepared metal extractant, the molecular weight and the pKa calculated using the above-described method are shown in Table 1-2.

[4] = Separation recovery method II, water phase W4 (Co, Ni sulfates with lithium chloride) mixed with kerosine oil phase of the metal extractant; settings: for Selection Ratio: W4, maximum amount of metal ions extracted / total amount of the other metal ions extracted, mixing amount 0.5 equivalent
Method: 200 g of lithium chloride (manufactured by FUJIFILM Wako Pure Chemical Corporation), 95.4 g of cobalt (II) sulfate heptahydrate (manufactured by FUJIFILM Wako Pure Chemicals Corporation), and 95.7 g of nickel (II) sulfate heptahydrate (manufactured by FUJIFILM Wako Pure Chemicals Corporation) were added to a 1L measuring flask, were diluted with ultrapure water, and were stirred and dissolved at 30° C. As a result, a metal ion-containing aqueous solution (W4) including two kinds of metal ions was prepared. In this aqueous solution, in the two kinds of metal ions (cobalt and nickel), complex ions to which halide ions were coordinated were formed.
12 mL of the extractant (Y3) with respect to 10 mL of the prepared metal ion-containing aqueous solution (W4) was added to a 30 mL vial tube, and the mixture was stirred using a stirrer tip at 25° C. for 30 minutes. In this case, the mixing amount (unit: equivalent) of the metal extractant to the total content of the metal ions was 0.5. Next, a 10 M sodium hydroxide aqueous solution or a 10 M hydrochloric acid was added to adjust the pH of the mixed solution to a value shown in the column “pH during Mixing” of Table 1-2. Further, the solution was stirred at 25° C. for 30 minutes, and was left to stand at the same temperature for 1 hour. After verifying that the solution was separated into two layers of the organic phase (oil phase) and the water phase, the separated water phase was extracted, and the separation and recovery of the metal ions was performed. The metal ions extracted in Example 5 and the metal ions extracted in the maximum amount are shown in the column “Kind” and the column “Maximum Amount Extracted” of the column “Extracted Metal Ions” in Table 1-2, respectively.
The separation and recovery of the metal ions according to Examples 6 and 7 and Comparative Examples 7 and 8 was performed using the same method as that of Example 5, except that the metal ion-containing aqueous solution and the extractant solution were changed to a combination shown in Table 1-2, and the pH during the mixing of the water phase and the oil phase was set to a value shown in the column “pH during Mixing” of Table 1 for mixing and standing. The metal ions extracted in each of Examples and the metal ions extracted in the maximum amount are shown in the column “Kind” and the column “Maximum Amount Extracted” of the column “Extracted Metal Ions” in Table 1-2, respectively.
as §4

[5] = Separation recovery method I, water phase W1 (Co, Ni sulfates) mixed with kerosine oil phase of the metal extractant; settings: maximum amount of metal ions extracted / total amount of the other metal ions extracted, mixing amount 0.5 equivalent
Method: 95.4 g of cobalt (II) sulfate heptahydrate (manufactured by FUJIFILM Wako Pure Chemicals Corporation) and 95.7 g of nickel (II) sulfate heptahydrate (manufactured by FUJIFILM Wako Pure Chemicals Corporation) were added to a 1L measuring flask, were diluted with ultrapure water, and were stirred and dissolved at 30° C. As a result, a metal ion-containing aqueous solution (W1) including two kinds of metal ions was prepared.
as §2, §3
Regarding each of the water phases used in Examples and Comparative Examples and the water phases after the extraction, the pH was measured using a pH meter (SK-620 pH II, manufactured by SATOTECH), and each of the contents of dissolved metal ions was determined using an inductively coupled plasma-optical emission spectrometer (ICP-OES) (Optima 7300 D (trade name), manufactured by Perkin Elmer Co., Ltd.). Measured values of the pH of each of the water phases used in Examples and Comparative Examples and the content of dissolved metal ions in each of the water phases are shown in the column “Water Phase pH” of Table 1-2 and the column “Metal Ion Concentration (ppm)” of Table 1-1. The maximum amount (ppm) of the metal ions extracted measured as described above was divided by the total amount (ppm) of the other metal ions extracted to calculate a ratio between the amounts thereof extracted. […]

[6] = Separation recovery method I, water phase W3 (Zr, Rh sulfates) mixed with kerosine oil phase of the metal extractant; settings: maximum amount of metal ions extracted / total amount of the other metal ions extracted, mixing amount 0.7 equivalent
Method: as §1
12 mL of the extractant (Y1) with respect to 10 mL of the prepared metal ion-containing aqueous solution (W1) was added to a 30 mL vial tube, and the mixture was stirred using a stirrer tip at 25° C. for 30 minutes. In this case, the mixing amount (unit: equivalent) of the metal extractant with respect to the total content of metal ions to be coordinated (that have the same definition as the extracted metal ions; in Example 1, Co and Ni) was 0.5. […]
Regarding each of the water phases used in Examples and Comparative Examples and the water phases after the extraction, the pH was measured using a pH meter (SK-620 pH II, manufactured by SATOTECH), and each of the contents of dissolved metal ions was determined using an inductively coupled plasma-optical emission spectrometer (ICP-OES) (Optima 7300 D (trade name), manufactured by Perkin Elmer Co., Ltd.). Measured values of the pH of each of the water phases used in Examples and Comparative Examples and the content of dissolved metal ions in each of the water phases are shown in the column “Water Phase pH” of Table 1-2 and the column “Metal Ion Concentration (ppm)” of Table 1-1. […]

pKa ([3]; read-out: pKa) | Compound | Selection Ratio [1] | Selection Ratio [4] | Selection Ratio [5] | also measured
 | CCCCC(CC)COP(=O)(O)CC(CC)CCCC (stereo not drawn) [PC-88A, mono-2-ethylhexyl(2-Ethylhexyl)phosphonate] | 1.4 |  |  | selectivity of the Mn ions extracted in the maximum amount ([1]; W2, in words): low
0.9 | O=C(O)CN(CCN(CC(=O)O)CC(=O)O)CC(=O)O [EDTA, ethylenediaminetetraacetic acid] |  |  |  | extraction of metal ions to the oil phase ([1]; W2, in words): not able to be extracted; dissolution in kerosine [2]: not able to be dissolved in kerosine
5.2 | CCCCC(CC)CN(CC(CC)CCCC)CC(CC)CCCC (stereo not drawn) [Tris-2-EHA, tris(2-ethylhexyl)amine] |  | 1.5 |  | 
 | Versatic acid 10 [VA-10] | 0.7 |  |  | selectivity of the Mn ions extracted in the maximum amount ([1]; W2, in words): low; pKa [3]: 7.9
5.8 | CCCCC(CC)CC(OCCOC(CC(CC)CCCC)C(=O)O)C(=O)O (stereo not drawn) [T-3] |  |  | 1.1 | 
6.3 | CCCCC(CC)CCC(C(=O)O)N(CCN(CC(CC)CCCC)C(CCC(CC)CCCC)C(=O)O)CC(CC)CCCC (stereo not drawn) [E-2] |  |  | 4.0 | 
11.1 | CCCCC(CC)CN(CCN(CC(CC)CCCC)CC(CC)CCCC)CC(CC)CCCC (stereo not drawn) [E-3] |  | 5.0 |  | 
6.1 | CCCCC(CC)CC(C(=O)O)N(CCC(C)SC)CCN(CCC(C)SC)C(CC(CC)CCCC)C(=O)O (stereo not drawn) [T-5] |  |  | 1.2 | 
6.2 | CCCCC(CC)CN(CCN(CC(CC)CCCC)C(CCCOCCOC)C(=O)O)C(CCCOCCOC)C(=O)O (stereo not drawn) [E-6] |  |  | 5.0 | 
5.2 | CCCCC(CC)CN(CC(CC)CCCC)C(=O)CNCC(=O)O (stereo not drawn) [T-2] | 0.6 |  |  | 
11.5 | CCCCC(CC)CN(CC(CC)CCCC)CC1CCC(CN(CC(CC)CCCC)CC(CC)CCCC)CC1 (stereo not drawn) [E-5] |  | 4.0 |  | 
11.4 | CCCCCCCCCN(CCCCCCCCC)CCN(CCCCCCCCC)CCCCCCCCC [E-4] |  | 3.3 |  | 
13.4 | CCCCC(CC)COCCOCC(CC)CCCC (stereo not drawn) [T-4] |  | 1.5 |  | amount of the metal ions extracted in the maximum amount ([4]; W4, in words): not sufficient
6.1 | CCCCC(CC)CC(C(=O)O)N(CCN(CC(CC)CCCC)C(CC(CC)CCCC)C(=O)O)CC(CC)CCCC (stereo not drawn) [E-1] | 20 |  | 10 | Selection Ratio [6]: 6.7
6 | CCCCC(CC)CN(CC(CC)CCCC)C(=O)CN(CCN(CC(=O)O)CC(=O)N(CC(CC)CCCC)CC(CC)CCCC)CC(=O)O (stereo not drawn) [T-1] | 0.5 |  |  | selectivity of the Mn ions extracted in the maximum amount ([1]; W2, in words): low
